Laboratory results reported in patent US6573255B1, “Vitamin D analogues” (Leo Pharmaceutical Products Ltd., A/S, priority 1999, dated 2003).
Like-named read-outs stand apart in the source and are kept apart here.

Legend:
[1] = in vitro model of metabolic stability, rat liver homogenate S-9; assay type: in vitro ADME
Excerpt: Another problem using vitamin D analogues in the non-topical treatment of hyperproliferative diseases, such as cancer, is metabolic stability in vivo. This stability has to be above a certain minimum level, for a compound to be used in practical therapy.

[2] = calcemic activity, rat calciuric model (urinary excretion of calcium)
Excerpt: (§1) The present invention provides a hitherto undisclosed series of vitamin D analogues which is characterised by the presence of an additional hydroxy group or halogen atom in the 26 position of the side chain.

U937 leukemia cell = U937 leukemia cell assay (antiproliferative activity); assay type: cell-based; details: for U937, -log IC50: U937 leukemia cells; for U937, rel.: geometric mean of the ratios relative to 1α,25(OH)2D3, higher = more potent
Excerpt: as §1

[3] = test system: MCF-7 mammary cancer cell; assay: MCF-7 mammary cancer cell assay (antiproliferative activity); assay type: cell-based; details: for MCF-7, -log IC50: MCF-7 mammary cancer cells; for MCF-7, rel.: geometric mean of the ratios relative to 1α,25(OH)2D3, higher = more potent
Excerpt: as §1

HaCaT = HaCaT assay, a psoriasis model; assay type: cell-based; details: for HaCaT, rel.: geometric mean of the ratios relative to 1α,25(OH)2D3, higher = more potent; for HaCaT, -log IC50: HaCaT cells
Excerpt: as §1

[4] = chronically uraemic rats with secondary hyperparathyroidism; cited from earlier work
[5] = relative to 1α,25(OH)2D3; cited from earlier work
[6] = test system: different types of cancer cells; details: brain glial tumor, MCF-7, NB4, HL-60, acute myeloid leukemia, MG-63 cells; cited from earlier work
mammary tumours = details: rats with mammary tumours, 1 μg/kg body weight for 28 days; cited from earlier work
human carcinoma cells = details: in vitro; cited from earlier work

Compound | Calcem.; in vivo ([2]; rat, in vivo) | S-9, metab. in vitr.: fraction left after 1 hour incubation [1] | half-life ([1]; rat) | T½ ([1]; rat liver homogenate S-9) | U937, -log IC50 (U937 leukemia cell) | U937, rel. (U937 leukemia cell) | MCF-7, -log IC50 [3] | MCF-7, rel. [3] | HaCaT, rel. (HaCaT) | S-9, metab. in vitr.: fraction left after 1 hour incubation ([1]; rat liver homogenate S-9, 1 hour incubation) | stability in in vitro model of metabolic stability ([1]; rat liver homogenate S-9, compared to seocalcitol and 1α,25(OH)2D3) | plasma PTH level [4] | plasma phosphate level [4] | calcemic vitamin D activity, urinary excretion of calcium in rats, % of that of 1α,25(OH)2D3 [5] | inhibitory activity on proliferation of cancer cells [6] | Calcem.; in vivo ([2]; rat calciuric model, geometric mean of the ratios relative to 1α,25(OH)2D3) | reduction of the initial tumour volume (mammary tumours) | serum calcium concentration (mammary tumours) | inhibiting the invasiveness of human carcinoma cells (human carcinoma cells) | HaCaT, -log IC50 (HaCaT)
C=C1/C(=C\C=C2/CCC[C@]3(C)[C@@H]([C@H](C)CCCC(C)(C)O)CC[C@@H]23)C[C@@H](O)C[C@@H]1O [1α,25(OH)2D3] | 1.0 |  |  | 2.5 h | 7.5 ± 0.3 | 1.0 | 7.7 ± 0.3 | 1.0 | 1.0 |  |  |  |  |  |  |  |  |  |  | 
C=C1C(=CC=C2CCCC3(C)C2CCC3C(C)C(C#CCC(O)(CC)CC)OCC)CC(O)CC1O (stereo not drawn) [CB1093, 20-epi-22-ethoxy-23-yne-24a, 26a, 27a, trishomo-1α,25(OH)2D3 vitamin D3] |  |  |  |  | 9.5 ± 0.1 | 74 | 10.2 ± 0.3 | 311 | 18 | 0.02 | quite low | significantly decreased | significantly decreased | 27% | potent inhibitory activity | 0.27 | 49% | slight increase | potent activity | 8.7 ± 0.9

Now from value to compound, other results behind:

Calcem.; in vivo ([2]; rat, in vivo) | S-9, metab. in vitr.: fraction left after 1 hour incubation [1] | half-life ([1]; rat) | Compound | T½ ([1]; rat liver homogenate S-9) | U937, -log IC50 (U937 leukemia cell) | U937, rel. (U937 leukemia cell) | MCF-7, -log IC50 [3] | MCF-7, rel. [3] | HaCaT, rel. (HaCaT) | S-9, metab. in vitr.: fraction left after 1 hour incubation ([1]; rat liver homogenate S-9, 1 hour incubation) | stability in in vitro model of metabolic stability ([1]; rat liver homogenate S-9, compared to seocalcitol and 1α,25(OH)2D3) | plasma PTH level [4] | plasma phosphate level [4] | calcemic vitamin D activity, urinary excretion of calcium in rats, % of that of 1α,25(OH)2D3 [5] | inhibitory activity on proliferation of cancer cells [6] | Calcem.; in vivo ([2]; rat calciuric model, geometric mean of the ratios relative to 1α,25(OH)2D3) | reduction of the initial tumour volume (mammary tumours) | serum calcium concentration (mammary tumours) | inhibiting the invasiveness of human carcinoma cells (human carcinoma cells) | HaCaT, -log IC50 (HaCaT)
0.11 | 0.43 |  | C=C1C(=CC=C2CCCC3(C)C2CCC3C(C)C(C#CCC(O)(CC)C(C)O)OCC)CC(O)CC1O [Compound 103, 1(S),3(R)-Dihydroxy-20(R)-(5(S),6(S)-dihydroxy-1(S)-ethoxy-5-ethyl-2-heptyn-1-yl)-9,10-secopregna-5(Z),7(E),10(19)-triene] |  | 9.0 ± 0.2 | 36 | 9.9 ± 0.1 | 153 | 38 |  |  |  |  |  |  |  |  |  |  | 9.0 ± 0.3
0.6 | 0.29 |  | C=C1/C(=C\C=C2/CCC[C@]3(C)[C@@H]([C@@H](C)[C@@H](C#CC[C@@](O)(CC)[C@@H](C)O)OCC)CC[C@@H]23)C[C@@H](O)C[C@@H]1O [Compound 108, 1(S),3(R)-Dihydroxy-20(R)-(5(S),6(R)-dihydroxy-1(S)-ethoxy-5-ethyl-2-heptyn-1-yl)-9,10-secopregna-5(Z),7(E),10(19)-triene] |  | 8.9 ± 0.2 | 49 | 9.8 ± 0.2 | 89 | 30 |  |  |  |  |  |  |  |  |  |  | 8.8 ± 0.2
 |  | 1.3 h | C=C1/C(=C\C=C2/CCC[C@]3(C)[C@@H]([C@H](C)/C=C/C=C/C(O)(CC)CC)CC[C@@H]23)C[C@@H](O)C[C@@H]1O [seocalcitol] |  |  |  |  |  |  |  |  |  |  |  |  |  |  |  |  | 
